Reference: US20160297763A1, “Heteroaryl hydroxamic acid derivatives and their use in the treatment, amelioration or prevention of a viral disease” (priority 2011, published 2016)
Where two headings read alike, the source gives them in different places.

Test system: influenza A virus A/Aichi/2/68 (H3N2)
Test: Cytopathic effect (CPE) assay H3N2
Assay type: cell-based, influenza A virus (H3N2) on MDCK cells
Details: for inhibition at 20 µM: H3N2, activity conc 20 (μM per method); for inhibition at 2 µM: H3N2, activity conc 2 (μM per method); for inhibition at 5 µM: H3N2, activity conc 5 (μM per method)
Experimental: A possible measure of the […] antiviral activity of the compounds having the formula I or II is the CPE assay disclosed herein. […] In this connection, the reduction in the virus-mediated cytopathic effect (CPE) upon treatment with the compounds was calculated as follows: The cell viability of infected-treated and uninfected-treated cells was determined using an ATP-based cell viability assay (Promega). The response in relative luminescent units (RLU) of infected-untreated samples was subtracted from the response (RLU) of the infected-treated samples and then normalized to the viability of the corresponding uninfected sample resulting in % CPE reduction.
The influenza A virus (IAV) was obtained from American Tissue Culture Collection (A/Aichi/2/68 (H3N2); VR-547). Virus stocks were prepared by propagation of virus on Mardin-Darby canine kidney (MDCK; ATCC CCL-34) cells and infectious titres of virus stocks were determined by the 50% tissue culture infective dose (TCID50) analysis as described in Reed, L. J., and H. Muench. 1938, Am. J. Hyg. 27:493-497.
MDCK cells were seeded in 96-well plates at 2×10^4 cells/well using DMEM/Ham's F-12 (1:1) medium containing 10% foetal bovine serum (FBS), 2 mM L-glutamine and 1 antibiotics (all from PAA). Until infection the cells were incubated for 5 hrs at 37° C., 5.0 CO2 to form a ˜80% confluent monolayer on the bottom of the well. Each test compound was dissolved in DMSO and generally tested at 25 μM and 250 μM. In those cases where the compounds were not soluble at that concentration they were tested at the highest soluble concentration. The compounds were diluted in infection medium (DMEM/Ham's F-12 (1:1) containing 5 μg/ml trypsin, and 1% antibiotics) for a final plate well DMSO concentration of 1%. The virus stock was diluted in infection medium (DMEM/Ham's F-12 (1:1) containing 5 μg/ml Trypsin, 1% DMSO, and 1% antibiotics) to a theoretical multiplicity of infection (MOI) of 0.05.
After removal of the culture medium and one washing step with PBS, virus and compound were added together to the cells. In the wells used for cytotoxicity determination (i.e. in the absence of viral infection), no virus suspension was added. Instead, infection medium was added. Each treatment was conducted in two replicates. After incubation at 37° C., 5% CO2 for 48 hrs, each well was observed microscopically for apparent cytotoxicity, precipitate formation, or other notable abnormalities. Then, cell viability was determined using CellTiter-Glo luminescent cell viability assay (Promega). The supernatant was removed carefully and 65 μl of the reconstituted reagent were added to each well and incubated with gentle shaking for 15 min at room temperature. Then, 60 μl of the solution was transferred to an opaque plate and luminescence (RLU) was measured using Synergy HT plate reader (Biotek).
Relative cell viability values of uninfected-treated versus uninfected-untreated cells were used to evaluate cytotoxicity of the compounds. Substances with a relative viability below 80% at the tested concentration were regarded as cytotoxic and retested at lower concentrations.
Reduction in the virus-mediated cytopathic effect (CPE) upon treatment with the compounds was calculated as follows: The response (RLU) of infected-untreated samples was subtracted from the response (RLU) of the infected-treated samples and then normalized to the viability of the corresponding uninfected sample resulting in % CPE reduction.

[1] = Influenza A virus, H3N2, activity conc 50 (μM per method), read-out: CPE H3N2 reduction (%)
[2] = Influenza A virus, H3N2, read-out: CPE H3N2 IC50
[3] = Influenza A virus, H3N2, read-out: CPE H3N2 reduction (%), activity conc 50 (μM per method)
[4] = Influenza A virus, read-out: CPE H3N2 reduction (%)

## O=C(NOC(=O)c1cc(N2CCCCC2)ccn1)c1cc(N2CCCCC2)ccn1 [drawing 160]
[1]
  inhibition at 50 µM: 29%
[2]
  IC50: 37 µM

## Cc1c(Cc2ccc(Cl)cc2)sc2nc(N)[nH]c(=O)c12 [SAV-7609]
  CPE H3N2 (insoluble): solubility in the assay: reduction (%) insoluble

## CCONC(=O)c1cc(N2CCOCC2)ccn1
[3]
  inhibition at 50 µM: 1.3%

## O=C(c1cc2ccccc2cn1)N(O)CCc1ccccc1 [drawing 202]
[4]
  inhibition at 20 µM: -1.8%

## O=C(c1cc2ccccc2cn1)N(O)CCCc1ccccc1
[4]
  inhibition at 2 µM: 4.4%

## CN(C)C(=O)c1cccc(-c2ccnc(C(=O)N(O)Cc3ccccc3)c2)c1
[1]
  inhibition at 50 µM: 5.3%

## O=C(NO)c1cc(NS(=O)(=O)Cc2cccc(C(F)(F)F)c2)ccn1
[1]
  inhibition at 50 µM: -5.6%

## O=C(c1cc(N2CCC(F)(F)C2)ccn1)N(O)Cc1ccccc1
[4]
  inhibition at 20 µM: 4.6%

## O=C(c1ccc(N2CCCC2)cn1)N(Cc1ccccc1)OCc1ccccc1 [drawing 178]
[4]
  inhibition at 5 µM: -2.7%

## O=C(c1cc(C2=CC3CCC(C2)N3)ccn1)N(O)Cc1ccccc1 (stereo not shown) [drawing 283]
[1]
  inhibition at 50 µM: 5.49%

## CC1(C)C=C(c2ccnc(C(=O)N(O)Cc3ccccc3)c2)CC(C)(C)N1
[1]
  inhibition at 50 µM: 2.8%

## CN(O)C(=O)c1cc(N2CCOCC2)ccn1
[1]
  inhibition at 50 µM: 5.7%

## Cc1cc(-c2sc3nc(N)[nH]c(=O)c3c2C)ccc1Cl [SAV-7620]
Influenza A virus, H3N2, read-out: CPE H3N2 IC50 [μM]
  IC50: 29 µM
[3]
  inhibition at 50 µM: 57.8%

## O=C(c1cc(N2CCC(N3CCCC3)CC2)ccn1)N(O)Cc1ccccc1 [drawing 226]
[1]
  inhibition at 50 µM: 10.7%

## O=C(c1ccc(N2CCCCC2)cn1)N(O)Cc1ccccc1 [drawing 208]
[4]
  inhibition at 5 µM: -3.4%

## O=C(NO)c1cc2ccccc2cn1 [drawing 201]
[1]
  inhibition at 50 µM: 94.3%
[2]
  IC50: 45 µM

## CC(C)(C)OC(=O)N1C2C=C(c3ccnc(C(=O)N(O)Cc4ccccc4)c3)CC1CC2 (stereo not shown)
[4]
  inhibition at 2 µM: -5.3%

## CC(C)(C)OC(=O)N1CC=C(c2ccnc(C(=O)N(O)Cc3ccccc3)c2)CC1 [drawing 229]
[4]
  inhibition at 5 µM: 1.2%

## CCONC(=O)c1ccc(-c2cccc(CN(C)CCCc3ccccc3)c2)cn1
[4]
  inhibition at 20 µM: 1.6%

## O=C(NO)c1ccc(N2CCCC2)cn1 [drawing 204]
[1]
  inhibition at 50 µM: -4.3%

## CC(C)c1cccc(-c2ccc(C(=O)N(O)CCc3ccccc3)nc2)c1 [drawing 207]
[4]
  inhibition at 2 µM: 2.1%

## O=C(NO)c1cc(NS(=O)(=O)Cc2ccc(Cl)c(Cl)c2)ccn1
[1]
  inhibition at 50 µM: 53.4%

## Cc1c(-c2ccccc2)sc2nc(NCCN)[nH]c(=O)c12 [SAV-7588]
[4]
  inhibition at 5 µM: 2.2%

## O=C(c1cc2ccccc2cn1)N(Cc1ccccc1)OCc1ccccc1 [drawing 179]
[4]
  inhibition at 5 µM: 1.3%

## O=C(NO)c1cc(NS(=O)(=O)Cc2cccc3cccnc23)ccn1
[1]
  inhibition at 50 µM: 24.4%
[2]
  IC50: 78 µM

## O=C(NO)c1cc(NS(=O)(=O)Cc2cc(Cl)cc(Cl)c2)ccn1
[4]
  inhibition at 20 µM: 28.9%

## COc1ccc2nc(C(=O)NOCc3ccccc3)ccc2c1
[1]
  inhibition at 50 µM: -1.9%

## O=C(c1cc(N2CCCCC2)ccn1)N(O)CCCc1ccccc1 [drawing 203]
[4]
  inhibition at 2 µM: 7.7%

## O=C(NO)c1cc(NS(=O)(=O)Cc2ccc(F)cc2)ccn1
[1]
  inhibition at 50 µM: -1.4%

## O=C(NO)c1ccc(-c2ccccc2)cn1 [drawing 216]
Influenza A virus, H3N2, activity conc 12 (μM per method), read-out: CPE H3N2 reduction (%)
  inhibition at 12 µM: 21.7%

## O=C(c1cc(N2CCC(F)(F)CC2)ccn1)N(O)Cc1ccccc1
[1]
  inhibition at 50 µM: -3.2%

## Cc1cccc(C(=O)N(C)OCc2ccccc2)n1
[1]
  inhibition at 50 µM: -2.3%

## O=C(NO)c1cc(NS(=O)(=O)Cc2cccc(F)c2)ccn1
[1]
  inhibition at 50 µM: -2.4%

## CN(OCc1ccccc1)C(=O)c1cc2ccccc2cn1 [drawing 184]
[1]
  inhibition at 50 µM: 0.6%

## CC(C)(C)OC(=O)N1CCC=C(c2ccnc(C(=O)N(O)Cc3ccccc3)c2)C1 [drawing 256]
[4]
  inhibition at 5 µM: 10.2%

## O=C(NOCc1ccccc1)c1cc2ccccc2cn1 [drawing 182]
[4]
  inhibition at 5 µM: -1.5%
